Measured values: paper PMC5327470, “Discovery and Optimization of Novel 5-Indolyl-7-arylimidazo[1,2-a]pyridine-8-carbonitrile Derivatives as Potent Antitubulin Agents Targeting Colchicine-binding Site” (Scientific Reports, 2017)

Legend:
[1] = test system: SMMC-7721 (human liver cancer); test: MTT antiproliferative assay, SMMC-7721; assay type: cell-based; details: 72 h, mean ± SD
Method: Data represent the mean values ± standard deviation (SD) of independent experiments performed in triplicate.
All of the cells were purchased from the American Type Culture Collection (ATCC, Manassas, VA).
The antiproliferative activities in vitro of Crolibulin and all the target compounds were determined by an MTT assay. Briefly, cells were seeded into 96-well plates at a density of 1–3 × 10^4/well (depends on the cell growth rate). 24 h later, triplicate wells were treated with media and the agents. […] After 4 h of incubation, the medium with MTT was removed, and […] of DMSO was added to each well. The plates were gently agitated until the purple formazan crystals were dissolved, and the OD490 was determinedusing a microplate reader (MK3, Thermo, Germany). The data were calculated and plotted as the percent viability compared to the control.

[2] = test system: MKN-45 (human gastric cancer); test: MTT antiproliferative assay, MKN-45; assay type: cell-based; details: 72 h, mean ± SD, read-out: IC50 (μM) ±SD MKN45
Method: (§1) To evaluate the antiproliferative activity, all synthesized derivatives (5a–5v and 7a–7h) were investigated for their activity in vitro against a panel of cancer cell lines including HT-29 (human colon cancer), H460 (human lung cancer), A549 (human lung carcinoma), MKN-45 (human gastric cancer) and SMMC-7721 (human liver cancer) by MTT assay. CA-4 and Crolibulin were served as positive control, and the results expressed as half-maximal inhibitory concentration (IC50). IC50 values are the concentrations that cause 50% inhibition of cancer cell growth (μM). Data represent the mean values ± standard deviation (SD) of independent experiments performed in triplicate.
(§2) Cell lines and culture conditions.The human colon carcinoma cell line HT-29, the human pulmonary carcinoma cell line A549, the human gastric carcinoma cell line MKN-45, the human breast cancer cell line MDA-MB-231 and human heptocarcinoma cellline SMMC-7721were cultured in RPMI-1640 mediumcontaining 10% FBS, 100 U/mL streptomycin and 100 U/mL penicillinat 37 °C in humidified atmosphere with 5% CO2. All of the cells were purchased from the American Type Culture Collection (ATCC, Manassas, VA).
(§3) The antiproliferative activities in vitro of Crolibulin and all the target compounds were determined by an MTT assay. Briefly, cells were seeded into 96-well plates at a density of 1–3 × 10^4/well (depends on the cell growth rate). 24 h later, triplicate wells were treated with media and the agents. After 72 h ofincubation at 37 °C in 5% CO2, the drug containing medium wasremoved and replaced by […] of fresh medium with 5 mg/mLMTT solution. After 4 h of incubation, the medium with MTT was removed, and […] of DMSO was added to each well. The plates were gently agitated until the purple formazan crystals were dissolved, and the OD490 was determinedusing a microplate reader (MK3, Thermo, Germany). The data were calculated and plotted as the percent viability compared to the control. The 50% inhibitory concentration (IC50) was defined as theconcentration that reduced the absorbance of the untreated wells by 50% of the vehicle in the MTT assay.

[3] = test system: HT-29 (human colon cancer); test: MTT antiproliferative assay, HT-29; assay type: cell-based; details: for IC50: Homo sapiens, HT-29, MTT, 72 h, mean ± SD, read-out: IC50 (μM) ±SD HT29
Method: as §1, §2, §3

[4] = test system: A549 (human lung carcinoma); test: MTT antiproliferative assay, A549; assay type: cell-based; details: 72 h, mean ± SD
Method: as §1, §2, §3

H460 (human lung cancer) = test: MTT antiproliferative assay, H460; assay type: cell-based; details: Homo sapiens, NCI-H460, 72 h, MTT, 72 h, mean ± SD
Method: as §1, §3

tubulin, colchicine site = test: Colchicine competition (competitive tubulin-binding) assay; details: 0, 1.6, 5 and 15 μM, 1 h at 37 °C, then 5 μM colchicine
Method: Figure 6 Colchicine competition assay. […] The fluorescence was measured by Hitachi F-2500 spectrofluorometer.
Then colchicine was added to a final concentration of 5 μM[43]. Fluorescence was determined using a Hitachi F-2500 spectrofluorometer (Tokyo, Japan) at excitation wavelengths of 365 nm and emission wavelengths of 435 nm. Blank values (buffer alone) as background were subtracted from all samples. […] Taxol, not binding in the colchicine-site of tubulin, was added as a negative control.

Row | IC50 [1] [µM] | IC50 [2] [µM] | melting point [°C] | IC50 [3] [µM] | IC50 [4] [µM] | IC50 (H460 (human lung cancer)) [µM] | Compound | fold more active than CA-4 on HT-29 ([3]; ratio of IC50 values) [fold] | fold more active than Crolibulin on HT-29 cell ([3]; ratio of IC50 values) | effect on intrinsic fluorescence of colchicine-tubulin complex (tubulin, colchicine site)
1 | 10.4 ± 1.64 | 9.67 ± 0.73 | 297.8 to 301.4 | 1.48 ± 0.27 | 1.18 ± 0.21 | 0.25 ± 0.031 | N#Cc1c(-c2ccc(O)c(O)c2O)cc(-c2c[nH]c3ccccc23)n2ccnc12 [5p, 5-(1H-indol-3-yl)-7-(2,3,4-trihydroxyphenyl)imidazo[1,2-a]pyridine-8-carbonitrile] | – | – | –
2 | 21.6 ± 3.16 | 20.5 ± 2.32 | 170.7 to 172.6 | 0.03 ± 0.003 | 3.54 ± 0.41 | 0.96 ± 0.06 | CCNCc1cn2c(-c3c[nH]c4ccccc34)cc(-c3ccc(F)cc3Cl)c(C#N)c2n1 [7b, 7-(2-chloro-4-fluorophenyl)-2-((ethylamino)methyl)-5-(1H-indol-3-yl)imidazo[1,2-a]pyridine-8-carbonitrile] | ~1.7 | about 17 fold | –
3 | 71.5 ± 9.43 | 1.64 ± 0.07 | 294.7 to 295.5 | 0.43 ± 0.03 | 15.5 ± 2.13 | 9.61 ± 0.76 | COc1ccc(-c2cc(-c3c[nH]c4ccccc34)n3ccnc3c2C#N)cc1 [5d, 5-(1H-indol-3-yl)-7-(4-methoxyphenyl)imidazo[1,2-a]pyridine-8-carbonitrile] | – | – | –
4 | – | – | – | – | – | – | CC(=O)O[C@H]1C(=O)[C@@]2(C)[C@H]([C@H](OC(=O)c3ccccc3)[C@]3(O)C[C@H](OC(=O)[C@H](O)[C@@H](NC(=O)c4ccccc4)c4ccccc4)C(C)=C1C3(C)C)[C@]1(OC(C)=O)CO[C@@H]1C[C@@H]2O [Taxol, reference compound] | – | – | scarcely effect
5 | > 100 | 56.8 ± 4.29 | 302.2 to 306.8 | 0.58 ± 0.06 | > 100 | 80.7 ± 6.98 | N#Cc1c(-c2ccccc2Cl)cc(-c2c[nH]c3ccc(Br)cc23)n2ccnc12 [5t, 5-(5-bromo-1H-indol-3-yl)-7-(2-chlorophenyl)imidazo[1,2-a]pyridine-8-carbonitrile] | – | – | –
6 | 24.6 ± 2.73 | 13.8 ± 1.79 | 181.2 to 184.5 | 0.21 ± 0.03 | 4.87 ± 0.38 | 0.67 ± 0.05 | CCN(CC)Cc1cn2c(-c3c[nH]c4ccccc34)cc(-c3ccc(F)cc3Cl)c(C#N)c2n1 [7e, 7-(2-chloro-4-fluorophenyl)-2-((diethylamino)methyl)-5-(1H-indol-3-yl)imidazo[1,2-a]pyridine-8-carbonitrile] | – | – | –
